Reference: patent US4594357A, “Depot antiinflammatory agents” (Troponwerke GmbH & Co., priority 1983, dated 1986)

Legend:
[1] = system: oedema of the rat paw induced by carrageenan; test: carrageenan-induced rat paw oedema (oedema inhibition); format: in vivo, rat (male, strain Bor: WISW (SPF-Cpb)); conditions: for % Inhibition after depot acid: i.m. 15 mg/kg as an oily solution; for Oedema inhibition: rat
Method: The oedema-inhibiting and analgesic action of the test substances following intramuscular administration of an appropriate depot formulation was determined with the aid of oedema of the rat paw induced by carrageenan or by means of the Randall-Selitto test [Arch. int. Pharmacodyn. 111, 409 (1957)].
The experiments were carried out on male rats [strain: Bor: WISW (SPF-Cpb), weight about 200 g]. A depot product was administered once intramuscularly to the animals and the antiinflammatory action on the following days was tested by inducing carrageenan oedema. In each case three groups or 5 animals each were investigated per day, the first group consisting of 5 untreated animals, the 2nd group of 5 animals treated only with solvent (for example viscoleo) and the 3rd group of 5 animals treated with depot product (for example 2-(2-hydroxyethoxy)-ethyl-N(α,α,α-trifluoro-m-tolyl)anthranilate (formula 11) in viscoleo).
The paw volumes were measured by the method of F. Kemper and G. Ameln [Z. ges. exp. Med. 131, 407 (1959)], the difference between the paw volumes 5 hours after oedema provocation and the normal paw volume giving the oedema volume. The analgesic action was determined via pressure pain [Randall-Selitto, see above].
The inhibition of the carrageenan oedema following intramuscular administration of 2-(2-hydroxyethoxy)-ethyl N-(α,α,α-trifluoro-m-tolyl)-anthranilate (formula 11) in viscoleo after various doses in a constant administration volume of 0.03 ml (rat) is as follows: […]

[2] = system: oedema of the rat paw induced by carrageenan; conditions: carrageenan model, cited from earlier work
[3] = biological half-life from the inflamed tissue by gas chromatography; format: in vivo; conditions: rat, read-out: biological half-life (HL) from the inflamed tissue (converted)
Method: (§1) It was possible to determine the biological half-life (HL) of the compound 11 in rats from the inflamed tissue by means of gas chromatography [H.-D. Dell, J. Fielder, H. Jacobi and J. Kolle, Arzneim.-Forsch./Drug.Res 31, 17-21 (1981)]. The HL from the tissue is about 8.5 hours. In contrast, an HL of 1.29 days is determined for elimination from the tissue (site of administration) following intramuscular administration of 11 in oily solution.

[4] = half-life for elimination from the tissue (site of administration); format: in vivo; conditions: tissue at administration site, im; rat, i.m. administration in oily solution; read-out: HL for elimination from the tissue (site of administration) (converted)
Method: as §1

Question: Which “% Inhibition after depot acid” value ([1]; 1 day after injection) does the source give for O=C(O)c1ccccc1Nc1cccc(C(F)(F)F)c1 [formula 1, N--(α,α,α-Trifluoro-m-tolyl)-anthranilic acid] here?
Answer: 53.8%

Question: What about the “% Inhibition after depot acid” value ([1]; 2 days after injection) of the same molecule?
Answer: 46.5%

Question: What about the “% Inhibition after depot acid” value ([1]; 3 days after injection) of the same molecule?
Answer: 34.3%

Question: What about the “% Inhibition after depot acid” value ([1]; 4 days after injection) of the same molecule?
Answer: 37.1%

Question: And the “% Inhibition after depot acid” value ([1]; 5 days after injection)?
Answer: 26.8%

Question: Which “% Inhibition after depot acid” value ([1]; 1 day after injection) does the source give for O=C(O)c1cccnc1Nc1cccc(C(F)(F)F)c1 [formula 6, 2-(α,α,α-Trifluoro-m-toluidino)-nicotinic acid] here?
Answer: 57.0%

Question: And the “% Inhibition after depot acid” value ([1]; 2 days after injection)?
Answer: 35.2%

Question: What about the “% Inhibition after depot acid” value ([1]; 3 days after injection) of the same molecule?
Answer: 35.5%

Question: And the “% Inhibition after depot acid” value ([1]; 4 days after injection)?
Answer: 11.5%

Question: What does the source list for O=C(OCCOCCO)c1ccccc1Nc1cccc(C(F)(F)F)c1 [formula 11, 2-(2-hydroxyethoxy)-ethyl N-(α,α,α-trifluoro-m-tolyl)-anthranilate]?
Answer: Oedema inhibition ([1]; 10.5 mg/kg, single i.m., in viscoleo, 1 day after injection): 64.0%; Oedema inhibition ([1]; 10.5 mg/kg, single i.m., in viscoleo, 2 days after injection): 61.1%; Oedema inhibition ([1]; 10.5 mg/kg, single i.m., in viscoleo, 3 days after injection): 36.6%; Oedema inhibition ([1]; 10.5 mg/kg, single i.m., in viscoleo, 4 days after injection): 41.6%; Oedema inhibition ([1]; 15 mg/kg, single i.m., in viscoleo, 1 day after injection): 77.6%; Oedema inhibition ([1]; 15 mg/kg, single i.m., in viscoleo, 2 days after injection): 72.2%; Oedema inhibition ([1]; 15 mg/kg, single i.m., in viscoleo, 3 days after injection): 55.5%; Oedema inhibition ([1]; 15 mg/kg, single i.m., in viscoleo, 4 days after injection): 51.3%; Oedema inhibition ([1]; 19.5 mg/kg, single i.m., in viscoleo, 1 day after injection): 77.6%; Oedema inhibition ([1]; 19.5 mg/kg, single i.m., in viscoleo, 2 days after injection): 81.3%; Oedema inhibition ([1]; 19.5 mg/kg, single i.m., in viscoleo, 3 days after injection): 61.6%; Oedema inhibition ([1]; 19.5 mg/kg, single i.m., in viscoleo, 4 days after injection): 52.1%; duration of oedema inhibition after peroral administration ([2]; about 24 hours): corresponds to the control value after about 24 hours; oedema inhibition after peroral administration [2]: powerful oedema inhibition; half-life [3]: ~8.5 h; half-life [4]: 31 h

Question: What does the source list for CCCCOC(=O)c1ccccc1Nc1cccc(C(F)(F)F)c1 [formula 13, butyl N-(α,α,α-trifluoro-m-tolyl)-anthranilate]?
Answer: Oedema inhibition ([1]; formula 13 in viscoleo, single i.m. 15 mg/kg, 1 day after administration): 53.8%; Oedema inhibition ([1]; formula 13 in viscoleo, single i.m. 15 mg/kg, 2 days after administration): 46.5%; Oedema inhibition ([1]; formula 13 in viscoleo, single i.m. 15 mg/kg, 3 days after administration): 34.3%; Oedema inhibition ([1]; formula 13 in viscoleo, single i.m. 15 mg/kg, 4 days after administration): 37.1%; Oedema inhibition ([1]; formula 13 in viscoleo, single i.m. 15 mg/kg, 5 days after administration): 28.8%
